From paper PMC7472354, “Enhanced Antimicrobial Activity of N-Terminal Derivatives of a Novel Brevinin-1 Peptide from The Skin Secretion of Odorrana schmackeri” (Toxins, 2020)
Converted amounts (≈) assume the structure as drawn. Where a SMILES comes first, the peptide text is derived from it.

What was measured:
[1] = test system: Pseudomonas aeruginosa (ATCC 27853); type: cell-based
Experimental: (§1) The minimal inhibitory concentrations (MICs) and minimum bactericidal concentrations (MBCs) were evaluated to determine the antimicrobial activity of synthetic peptides. The microorganisms employed in the study are two kinds of Gram-negative bacteria, Escherichia coli (NCTC 10418) and Pseudomonas aeruginosa (ATCC 27853), three kinds of Gram-positive bacteria, Staphylococcus aureus (NCTC 10788), Methicillin-resistant Staphylococcus aureus (MRSA, ATCC 12493) and Enterococcus faecalis (NCTC 12697) and a yeast, Candida albicans (NCPF 1467), as indicated previously. […] The sterilised broth medium was used as the positive control and the microorganism cultured in the medium only was treated as the negative control. […] The MBC results were defined as the lowest bactericidal concentrations of peptide. The antimicrobial activity of peptides was tested by monitoring the absorbance at 550 nm using an ELISA plate reader (Biolise BioTek EL808, Winooski, VT, USA).

[2] = test system: Staphylococcus aureus (NCTC 10788); type: cell-based
Experimental: as §1

[3] = test system: Methicillin-resistant Staphylococcus aureus (MRSA, ATCC 12493); type: cell-based
Experimental: as §1

[4] = test system: Enterococcus faecalis (NCTC 12697); type: cell-based
Experimental: as §1

[5] = test system: Escherichia coli (NCTC 10418); type: cell-based
Experimental: as §1

[6] = test system: Candida albicans (NCPF 1467); type: cell-based
Experimental: as §1

[7] = test system: horse red blood cells; experiment: Haemolysis assay and therapeutic index; settings: 2% horse red blood cells in PBS, 2 h, 37 °C, absorbance 570 nm; best-fitted curve
Experimental: The haemolytic activity of synthetic peptides was determined using the horse red blood cells that were extracted from the de-fibroblast whole horse blood (TCS Biosciences Ltd. Buckingham, UK). […] Briefly, the red blood cells were harvested and washed using PBS until all broken red blood cells were removed. Then, a 2% cell suspension was prepared using PBS. The peptide concentrations were set as antimicrobial activity assay and mixed with the red blood cells in the microcentrifuge tubes. After a 2 h-incubation at 37 °C, the tubes were centrifuged and the suspension was transferred into a clear 96 well plate. The absorbance of released haemoglobin in the suspension was detected at 570 nm by a plate reader. Besides, the red blood cells treated with PBS and 1% Triton X-100 were used as the negative and positive controls, respectively. […] The therapeutic index (TI) was further determined as below:(1) TI=HC50/product of n MICsn,

- MIC ([1]; ATCC 27853, 24 h): > 512 µM
- MIC ([2]; NCTC 10788, 24 h): 256 µM (≈ 314 µg/mL)
- MIC ([3]; ATCC 12493, 24 h): > 512 µM
- MIC ([4]; NCTC 12697, 24 h): > 512 µM
- MIC ([5]; NCTC 10418, 24 h): > 512 µM
- MIC ([6]; NCPF 1467, 24 h): 256 µM (≈ 314 µg/mL)
Structure (SMILES): CC[C@H](C)[C@H](NC(=O)[C@H](CCCCN)NC(=O)[C@@H]1CCCN1C(=O)[C@H](CC(C)C)NC(=O)[C@@H](N)Cc1ccccc1)C(=O)N[C@@H](CC(C)C)C(=O)N[C@@H](CCCCN)C(=O)N[C@H](C(=O)N[C@@H](C)C(=O)N[C@@H](C)C(=O)N[C@@H](CCCCN)C(N)=O)C(C)C [OSc] (H-FLPKILKVAAK-NH2)
- MBC ([1]; ATCC 27853, 18 h): > 512 µM
- MBC ([2]; NCTC 10788, 18 h): > 512 µM
- MBC ([3]; ATCC 12493, 18 h): > 512 µM
- MBC ([4]; NCTC 12697, 18 h): > 512 µM
- MBC ([5]; NCTC 10418, 18 h): > 512 µM
- MBC ([6]; NCPF 1467, 18 h): > 512 µM
- HC50 (concentration causing 50% haemolysis of the red blood cells) [7]: >512 µM
